Laboratory results from patent US10765114B2, “4-amino-6-(pyridyl and 2-substitutedphenyl)-picolinates and 6-amino-2-(pyridyl and 2-substitutedphenyl)-pyrimidine-4-carboxylates and their use as herbicides” (Dow AgroSciences LLC, priority 2013, dated 2020).

Tests used:
Test in all cases: Post-Emergent Test III (Wheat and Barley)
[1] = tested on: LAMPU (purple deadnettle); type: in vivo, Lamium purpureum; conditions: for Visual Growth Reduction (%) 21 Days After Application, LAMPU: postemergence; for GR50, LAMPU: effective dose for growth reduction of 50 percent; for GR50, LAMPU / GR80, LAMPU / GR90, LAMPU: probit analysis; for GR80, LAMPU: effective dose for growth reduction of 80 percent; for GR90, LAMPU: effective dose for growth reduction of 90 percent
Method: (§1) Seeds of the desired test plant species were planted in Sun Gro MetroMix® 306 planting mixture, which typically has a pH of 6.0 to 6.8 and an organic matter content of about 30 percent, in plastic pots with a surface area of 103.2 square centimeters (cm^2). When required to ensure good germination and healthy plants, a fungicide treatment and/or other chemical or physical treatment was applied. The plants were grown for 7-36 days in a greenhouse with an approximate 14 h photoperiod which was maintained at about 18° C. during the day and 17° C. during the night. Nutrients and water were added on a regular basis and supplemental lighting was provided with overhead metal halide 1000-Watt lamps as necessary. The plants were employed for testing when they reached the second or third true leaf stage.
(§2) A weighed amount, determined by the highest rate to be tested, of each test compound was placed in a 25 mL glass vial and was dissolved in 4 mL of a 97:3 v/v mixture of acetone and DMSO to obtain concentrated stock solutions. […] The concentrated stock solutions obtained were diluted with 20 mL of an aqueous mixture containing acetone, water, isopropyl alcohol, DMSO, Agri-Dex crop oil concentrate, and X-77 surfactant in a 48:39:10:1.5:1.5:0.02 v/v ratio to obtain spray solutions containing the highest application rates. Additional application rates were obtained by serial dilution of 12 mL of the high rate solution into a solution containing 2 mL of 97:3 v/v mixture of acetone and DMSO and 10 mL of an aqueous mixture containing acetone, water, isopropyl alcohol, DMSO, Agri-Dex crop oil concentrate, and X-77 surfactant in a 48:39:10:1.5:1.5:0.02 v/v ratio to obtain ½×, ¼×, ⅛× and 1/16× rates of the high rate. Compound requirements are based upon a 12 mL application volume at a rate of 187 liters per hectare (L/ha). Formulated compounds were applied to the plant material with an overhead Mandel track sprayer equipped with 8002E nozzles calibrated to deliver 187 L/ha over an application area of 0.503 square meters at a spray height of 18 inches (43 cm) above the average plant canopy height. Control plants were sprayed in the same manner with the solvent blank.
(§3) The treated plants and control plants were placed in a greenhouse as described above and watered by subirrigation to prevent wash-off of the test compounds. After 21 dAYS, the condition of the test plants as compared with that of the untreated plants was determined visually and scored on a scale of 0 to 100 percent where 0 corresponds to no injury and 100 corresponds to complete kill and presented as indicated in Table A.
(§4) By applying the well-accepted probit analysis as described by J. Berkson in Journal of the American Statistical Society, 48, 565 (1953) and by D. Finney in “Probit Analysis” Cambridge University Press (1952), herbicidal injury of a specific compound at various rates can be used to calculate GR10, GR20, GR50, GR80 and GR90 values, which are defined as growth reduction factors that correspond to the effective dose of herbicide required to provide plant growth reduction (GR) of 10 percent, 20 percent, 50 percent, 80 percent and 90 percent, respectively. Probit analysis was applied to data collected from multiple dose rates of individual compounds utilizing the procedures explained in the following examples. The analysis of those dose rates is captured in the following tables.

[2] = tested on: PHAMI (littleseed canarygrass); type: in vivo, Phalaris minor; conditions: for Visual Growth Reduction (%) 21 Days After Application, PHAMI: postemergence; for GR50, PHAMI: effective dose for growth reduction of 50 percent; for GR50, PHAMI / GR80, PHAMI / GR90, PHAMI: probit analysis; for GR80, PHAMI: effective dose for growth reduction of 80 percent; for GR90, PHAMI: effective dose for growth reduction of 90 percent
Method: as §1, §2, §3, §4

SASKR (Russian thistle) = type: in vivo, Salsola tragus; conditions: for Visual Growth Reduction (%) 21 Days After Application, SASKR: postemergence; for GR50, SASKR: effective dose for growth reduction of 50 percent; for GR50, SASKR / GR80, SASKR / GR90, SASKR: probit analysis; for GR80, SASKR: effective dose for growth reduction of 80 percent; for GR90, SASKR: effective dose for growth reduction of 90 percent
Method: as §1, §2, §3, §4

SINAR (wild mustard) = type: in vivo, Sinapis arvensis; conditions: for Visual Growth Reduction (%) 21 Days After Application, SINAR: postemergence; for GR50, SINAR: effective dose for growth reduction of 50 percent; for GR50, SINAR / GR80, SINAR / GR90, SINAR: probit analysis; for GR80, SINAR: effective dose for growth reduction of 80 percent; for GR90, SINAR: effective dose for growth reduction of 90 percent
Method: as §1, §2, §3, §4

SMILES	Visual Growth Reduction (%) 21 Days After Application, LAMPU ([1]; 35 g ai/ha)	Visual Growth Reduction (%) 21 Days After Application, LAMPU ([1]; 70 g ai/ha)	Visual Growth Reduction (%) 21 Days After Application, LAMPU ([1]; 140 g ai/ha)	GR50, LAMPU [1] [g ai/ha]	GR80, LAMPU [1] [g ai/ha]	GR90, LAMPU [1] [g ai/ha]	Visual Growth Reduction (%) 21 Days After Application, PHAMI ([2]; 35 g ai/ha)	Visual Growth Reduction (%) 21 Days After Application, PHAMI ([2]; 70 g ai/ha)	Visual Growth Reduction (%) 21 Days After Application, PHAMI ([2]; 140 g ai/ha)	GR50, PHAMI [2] [g ai/ha]	GR80, PHAMI [2] [g ai/ha]	GR90, PHAMI [2] [g ai/ha]	Visual Growth Reduction (%) 21 Days After Application, SASKR (SASKR (Russian thistle); 35 g ai/ha)	Visual Growth Reduction (%) 21 Days After Application, SASKR (SASKR (Russian thistle); 70 g ai/ha)	Visual Growth Reduction (%) 21 Days After Application, SASKR (SASKR (Russian thistle); 140 g ai/ha)	GR50, SASKR (SASKR (Russian thistle)) [g ai/ha]	GR80, SASKR (SASKR (Russian thistle)) [g ai/ha]	GR90, SASKR (SASKR (Russian thistle)) [g ai/ha]	Visual Growth Reduction (%) 21 Days After Application, SINAR (SINAR (wild mustard); 35 g ai/ha)	Visual Growth Reduction (%) 21 Days After Application, SINAR (SINAR (wild mustard); 70 g ai/ha)	other results
COC(=O)c1nc(-c2ccc(Cl)c(F)c2C)cc(N)c1Cl [Compound 73]	A (95-100)	A (95-100)	A (95-100)	<17.5	<17.5	<17.5	D (60-74)	D (60-74)	C (75-84)	40	107	>140	C (75-84)	C (75-84)	C (75-84)	1	84	>140	A (95-100)	A (95-100)	Visual Growth Reduction (%) 21 Days After Application, SINAR (SINAR (wild mustard); 140 g ai/ha): A (95-100); GR50, SINAR (SINAR (wild mustard)): 1 g ai/ha; GR80, SINAR (SINAR (wild mustard)): 1 g ai/ha; GR90, SINAR (SINAR (wild mustard)): 3 g ai/ha
Cc1c(-c2cc(N)c(Cl)c(C(=O)O)n2)ccc(Cl)c1F [Compound 52]	A (95-100)	A (95-100)	A (95-100)	<17.5	<17.5	<17.5	C (75-84)	B (85-94)	B (85-94)	18	38	56	D (60-74)	D (60-74)	C (75-84)	1	>140	>140	A (95-100)	A (95-100)	Visual Growth Reduction (%) 21 Days After Application, SINAR (SINAR (wild mustard); 140 g ai/ha): A (95-100); GR50, SINAR (SINAR (wild mustard)): 1 g ai/ha; GR80, SINAR (SINAR (wild mustard)): 1 g ai/ha; GR90, SINAR (SINAR (wild mustard)): 5 g ai/ha
